This note sets out measurements from US12570615B2, “Quinazolinone derivatives” (Hoffmann-La Roche Inc., priority 2021, dated 2026).

One assay has as its target BRAF (wt) (Homo sapiens, UniProt P15056). Put plainly: KD BRAF (wt) (Table 1). The assay is classed as binding.
Assay [1] has as its system P-ERK (ERK phospho-T202/Y204) in HCT116 cells expressing WT BRAF. In words: HTRF assay for P-ERK determination in HCT116 cells (BRAF activation). The assay is classed as cell-based. The following applies: Homo sapiens, HCT-116, drug incubation 1 hour, concentration giving 50% of the maximum activation achieved by Dabrafenib. From the text:
(§1) A375 is a cellular cancer model expressing V600E mutated BRAF and HCT116 a cellular cancer model expressing WT BRAF. First generation BRAF inhibitors such as e.g. dabrafenib induce a paradox effect on tumour cells in that they inhibit the growth of V600E mutated BRAF cells (such as e.g. A375), while they activate growth in WT BRAF cells (such as e.g. HCT 116). ERK 1,2 phosphorylation (terminal member of the phosphorylation cascade of the MAPK pathway) is hereafter reported as main readout for the activation status of the MAPK pathway. DMEM no-phenol red medium supplemented with L-glutamine was purchased from (Thermo Fisher Scientific). Fetal bovine serum (FBS) was purchased from VWR. Advanced ERK phospho-T202/Y204 kit—10,000 tests was purchased from Cisbio cat #64AERPEH. A375 (catalog #CRL-1619) and HCT116 (catalog #CCL-247) cells were originally obtained from American type Culture Collection (ATCC) and banked by the Roche repository. 384-Well microplates utilized were purchased from Greiner Bio-One, 384-well, (With Lid, HiBase, Low volume cat 784-080).
(§2) Prior to the assay, A375 and HCT116 cell lines are maintained in DMEM no-phenol red medium supplemented with 10% fetal bovine serum (FBS). Following compound treatment, P-ERK levels are determined by measuring FRET fluorescence signal induced by selective binding of 2 antibodies provided in the mentioned kit (Cisbio cat #64AERPEH) on ERK protein when phosphorylated at Thr202/Tyr204. Briefly, 8000 cells/well in 12 μl media/well are plated in the 384-well plate and left overnight in the incubator (at 37° C. with 5% CO2-humidified atmosphere), the following day the plate is treated in duplicate with test compounds, dabrafenib and PLX8394 (the latter two as controls) at the following final drug concentrations: 10 μM-3 μM 1 μM-0.3 μM-0.1 μM-0.03 μM-0, 01 μM-0.003 μM-0.001 μM, all wells are subjected to DMSO normalization and drug incubation occurs for 1 hour. Then, […] of a 4× lysis buffer supplied with the kit are added to the wells, the plate is then centrifuged for 30 second (3000 rpm) and incubated on a plate shaker for 1 h at rt.
(§3) At the end of the incubation 4 μL/well of advanced P-ERK antibody solution (prepared according to manufacturer's instruction) followed by 4 μL/well of criptate P-ERK antibody solution (prepared according to manufacturer's instruction) (Cisbio cat #64AERPEH) are added to test wells.
(§4) In order to allow proper data normalization control wells non drug treated reported in the following table are always included in each plate (according to manufacturer's instruction):
(§5) The plate is then centrifuged at 3000 rpm for 30 second, sealed to prevent evaporation and incubated overnight in the dark at room temperature.
(§6) The plate is then analyzed and fluorescence emission value collected through a Pherastast FSX (BMG Labtech) apparatus at […].
(§7) The obtained fluorescence values are processed according to the formula Ratio=[…]*10000 then the average of the ratio on the blank is subtracted to all values.
Data are normalized in the case of HCT116 cells (BRAF activation) considering the average of the ratio (blank subtracted) derived by DMSO only treated cells as 0% and by considering the average of the ratio (blank subtracted) derived by Dabrafenib treated cells at the concentration which provides the highest signal as 100%. Individual points are fitted with either sigmoidal or bell shape curves. The EC50 is the concentration at which activation equal to 50% of the maximum activation achieved by Dabrafenib is obtained.

The target in the next assay is BRAF (V600E) (Homo sapiens, UniProt P15056, V600E). In words: KD BRAF (V600E) (Table 1). The assay is classed as binding.
Chain of BRAF (V600E) (P15056 whole entry V600E): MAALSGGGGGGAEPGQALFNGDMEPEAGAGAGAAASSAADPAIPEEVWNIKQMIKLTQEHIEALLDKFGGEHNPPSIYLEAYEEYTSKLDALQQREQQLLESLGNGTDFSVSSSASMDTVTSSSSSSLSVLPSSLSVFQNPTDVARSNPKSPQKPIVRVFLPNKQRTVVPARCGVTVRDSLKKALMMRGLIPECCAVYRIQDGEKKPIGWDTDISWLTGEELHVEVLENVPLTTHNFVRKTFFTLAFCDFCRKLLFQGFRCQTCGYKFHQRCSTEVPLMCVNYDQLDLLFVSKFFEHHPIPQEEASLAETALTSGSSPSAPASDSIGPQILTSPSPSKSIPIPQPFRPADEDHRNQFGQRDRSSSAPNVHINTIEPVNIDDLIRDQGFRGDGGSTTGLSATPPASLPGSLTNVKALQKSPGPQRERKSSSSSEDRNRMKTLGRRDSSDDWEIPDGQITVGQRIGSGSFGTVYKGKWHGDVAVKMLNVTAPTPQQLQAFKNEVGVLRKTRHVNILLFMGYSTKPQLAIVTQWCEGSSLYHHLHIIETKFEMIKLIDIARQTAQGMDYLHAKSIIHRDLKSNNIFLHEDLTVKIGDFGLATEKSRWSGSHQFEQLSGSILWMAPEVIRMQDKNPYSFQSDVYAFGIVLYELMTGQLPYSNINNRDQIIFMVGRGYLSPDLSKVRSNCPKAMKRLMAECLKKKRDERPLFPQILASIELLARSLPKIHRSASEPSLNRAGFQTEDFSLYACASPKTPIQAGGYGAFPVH
The subject of assay [2] is P-ERK (ERK phospho-T202/Y204) in A375 cells expressing V600E mutated BRAF. In words: HTRF assay for P-ERK determination in A375 cells (BRAF inhibition). The assay is classed as cell-based. The following applies: Homo sapiens, A-375, P-ERK level, drug incubation 1 hour, DMSO = 100%, 10 μM Dabrafenib = 0%.
From the text: as §1, §2, §3, §4, §5, §6, §7
Data are normalized in the case of A375 cells (BRAF inhibition) considering the average of the ratio (blank subtracted) derived by DMSO only treated cells as 100% and by considering the average of the ratio (blank subtracted) derived by 10 μM Dabrafenib treated cells as 0%. Mean of the normalized points are fitted with sigmoidal curve and IC50 determined.

pEC50, pIC50, pKd: −log10 of the molar value. Some results are limits rather than exact numbers.

Chain of BRAF (wt) (P15056 whole entry): as the sequence (P15056 whole entry V600E) above, with E600V counted along it

For `CC(C)(C)OC(=O)N1CCC(CCn2cnc3ccc(Oc4c(F)ccc(NS(=O)(=O)C5CCCC5)c4C#N)cc3c2=O)CC1` [Example 17, tert-butyl 4-[2-[6-[2-cyano-3-(cyclopentylsulfonylamino)-6-fluoro-phenoxy]-4-oxo-quinazolin-3-yl]ethyl]piperidine-1-carboxylate], the negative logarithm of the Kd (pKd) at BRAF (wt) was 7.91; on BRAF (V600E) it was 7.61. Further, the negative-log EC50 (pEC50) in assay [1] was 5.94. Further, the negative-log IC50 (pIC50) in assay [2] is 7.24.
On the same counts, the results for `CC(C)(C)OC(=O)N1CCC(CCn2cnc3ccc(Oc4c(F)ccc(NS(=O)(=O)N5CCCCC5)c4C#N)cc3c2=O)CC1` [Example 18, tert-butyl 4-[2-[6-[2-cyano-6-fluoro-3-(1-piperidylsulfonylamino)phenoxy]-4-oxo-quinazolin-3-yl]ethyl]piperidine-1-carboxylate] are 7.34, 7.24, 5.84 and 6.80.
The corresponding values for `CN(CCCn1cnc2ccc(Oc3c(F)ccc(NS(=O)(=O)N4CCCC4)c3C#N)cc2c1=O)C(=O)OC(C)(C)C` [Example 19, tert-butyl N-[3-[6-[2-cyano-6-fluoro-3-(pyrrolidin-1-ylsulfonylamino)phenoxy]-4-oxo-quinazolin-3-yl]propyl]-N-methyl-carbamate] are 9.03, 8.64, ≤ 5.00 and 6.99.
As to `CN(CCCn1cnc2ccc(Oc3c(F)ccc(NS(=O)(=O)C4CCCC4)c3C#N)cc2c1=O)C(=O)OC(C)(C)C` [Example 20, tert-butyl N-[3-[6-[2-cyano-3-(cyclopentylsulfonylamino)-6-fluoro-phenoxy]-4-oxo-quinazolin-3-yl]propyl]-N-methyl-carbamate], the figures for the pKd on BRAF (wt) and at BRAF (V600E) were 8.48 and 8.04, respectively. Also, in assay [1], the negative logarithm of the EC50 (pEC50) was ≤ 5.00. Moreover, in assay [2], the pIC50 is 6.36.
On the same counts, the results for `CC(C)(C)OC(=O)N1CCC(CCn2cnc3ccc(Oc4c(F)ccc(NS(=O)(=O)C5CCC5)c4C#N)cc3c2=O)CC1` [Example 21, tert-butyl 4-[2-[6-[2-cyano-3-(cyclobutylsulfonylamino)-6-fluoro-phenoxy]-4-oxo-quinazolin-3-yl]ethyl]piperidine-1-carboxylate] are 7.93, 7.17, ≤ 5.00 and 7.06.
Turning to `CC(C)(C)OC(=O)N1CCCC(CCn2cnc3ccc(Oc4c(F)ccc(NS(=O)(=O)C5CCCC5)c4C#N)cc3c2=O)C1` (stereo not drawn) [Example 22, tert-butyl 3-[2-[6-[2-cyano-3-(cyclopentylsulfonylamino)-6-fluoro-phenoxy]-4-oxo-quinazolin-3-yl]ethyl]piperidine-1-carboxylate], the pKd on BRAF (wt) was 7.55; on BRAF (V600E), 7.54. For the same compound, the pEC50 in assay [1] was ≤ 5.00. The same compound gave a negative-log IC50 (pIC50) in assay [2] of 6.81.
In the case of `CC(C)(C)OC(=O)N1CCCC(CCn2cnc3ccc(Oc4c(F)ccc(NS(=O)(=O)N5CCCC5)c4C#N)cc3c2=O)C1` (stereo not drawn) [Example 23, tert-butyl 3-[2-[6-[2-cyano-6-fluoro-3-(pyrrolidin-1-ylsulfonylamino)phenoxy]-4-oxo-quinazolin-3-yl]ethyl]piperidine-1-carboxylate], the figures for the pKd at BRAF (wt) and on BRAF (V600E) were 8.03 and 7.99, respectively. Further, in assay [1], the pEC50 is 5.64. Besides, the pIC50 in assay [2] is 7.30.
Take `CC(=O)N(C)CCCn1cnc2ccc(Oc3c(F)ccc(NS(=O)(=O)C4CCCC4)c3C#N)cc2c1=O` [Example 24, N-[3-[6-[2-cyano-3-(cyclopentylsulfonylamino)-6-fluoro-phenoxy]-4-oxo-quinazolin-3-yl]propyl]-N-methyl-acetamide]: the negative-log Kd (pKd) was 9.38 at BRAF (wt) and 9.12 on BRAF (V600E). In addition, in assay [1], the negative logarithm of the EC50 (pEC50) was ≤ 5.00. For the same compound, the pIC50 in assay [2] was 7.30.
The corresponding values for `CC(C)(C)OC(=O)N1CCN(CCn2cnc3ccc(Oc4c(F)ccc(NS(=O)(=O)C5CCCC5)c4C#N)cc3c2=O)CC1` [Example 25, tert-butyl 4-[2-[6-[2-cyano-3-(cyclopentylsulfonylamino)-6-fluoro-phenoxy]-4-oxo-quinazolin-3-yl]ethyl]piperazine-1-carboxylate] are 8.38, 8.15, 6.10 and 8.12.
Regarding `CC(=O)N(C)CCCn1cnc2ccc(Oc3c(F)ccc(NS(=O)(=O)N4CCCC4)c3C#N)cc2c1=O` [Example 26, N-[3-[6-[2-cyano-6-fluoro-3-(pyrrolidin-1-ylsulfonylamino)phenoxy]-4-oxo-quinazolin-3-yl]propyl]-N-methyl-acetamide], the values for the negative logarithm of the Kd (pKd) at BRAF (wt) and at BRAF (V600E) were 9.49 and 9.26, respectively. The negative-log EC50 (pEC50) in assay [1] was 5.37. Also, the pIC50 in assay [2] is 7.69.
For `CCN(C)S(=O)(=O)Nc1ccc(F)c(Oc2ccc3ncn(CCN4CCN(C(=O)OC(C)(C)C)CC4)c(=O)c3c2)c1C#N` [Example 27, tert-butyl 4-[2-[6-[2-cyano-3-[[ethyl(methyl)sulfamoyl]amino]-6-fluoro-phenoxy]-4-oxo-quinazolin-3-yl]ethyl]piperazine-1-carboxylate], the pKd is 7.79 at BRAF (wt) and 7.55 on BRAF (V600E). The compound also gave a negative-log EC50 (pEC50) in assay [1] of 5.16. The pIC50 in assay [2] was 8.16.
On the same counts, the results for `CN(Cc1ccc(CCCn2cnc3ccc(Oc4c(F)ccc(NS(=O)(=O)C5CCCC5)c4C#N)cc3c2=O)cc1)C(=O)OC(C)(C)C` [Example 28, tert-butyl N-[[4-[3-[6-[2-cyano-3-(cyclopentylsulfonylamino)-6-fluoro-phenoxy]-4-oxo-quinazolin-3-yl]propyl]phenyl]methyl]-N-methyl-carbamate] are 7.71, 7.47, 6.08 and 6.84.
The corresponding values for `CCC(C)S(=O)(=O)Nc1ccc(F)c(Oc2ccc3ncn(CCN4CCN(C(=O)OC(C)(C)C)CC4)c(=O)c3c2)c1C#N` (stereo not drawn) [Example 29, tert-butyl 4-[2-[6-[2-cyano-6-fluoro-3-(sec-butylsulfonylamino)phenoxy]-4-oxo-quinazolin-3-yl]ethyl]piperazine-1-carboxylate] are 8.13, 7.72, 5.44 and 7.74.
For `CN(Cc1ccc(CCCn2cnc3ccc(Oc4c(F)ccc(NS(=O)(=O)N5CCCC5)c4C#N)cc3c2=O)cc1)C(=O)OC(C)(C)C` [Example 30, tert-butyl N-[[4-[3-[6-[2-cyano-6-fluoro-3-(pyrrolidin-1-ylsulfonylamino)phenoxy]-4-oxo-quinazolin-3-yl]propyl]phenyl]methyl]-N-methyl-carbamate], the negative logarithm of the Kd (pKd) at BRAF (wt) was 8.21; at BRAF (V600E), 7.92. In assay [1], this compound gave a negative-log EC50 (pEC50) of 6.34. In assay [2], this compound gave a pIC50 of 7.28.
On the same counts, the results for `CCN(C)S(=O)(=O)Nc1cccc(Nc2ccc3ncn(CC(=O)NCCOC)c(=O)c3c2)c1C#N` [Example 31, 2-[6-[2-cyano-3-[[ethyl(methyl)sulfamoyl]amino]anilino]-4-oxo-quinazolin-3-yl]-N-(2-methoxyethyl)acetamide] are 6.86, 6.39, ≤ 5.00 and ≤ 5.00.

One may read the pKd as the Kd on a negative log10 scale, so that one unit is a factor of ten. High values mean a low Kd, low ones a high Kd. In general, pEC50 refers to the EC50 on a negative log10 scale, so that one unit is a factor of ten. A low value points to a large EC50. The pIC50 is the negative decadic logarithm of the IC50, by convention in mol/L.
